Measured values from EP4652998A1, “TREATMENT OF RECEPTOR-INTERACTING PROTEIN KINASE 1- MEDIATED DISEASE WITH ECLITASERTIB” (Technische Universität München, priority 2024, dated 2025).

Tests used:
C57BL/6 mice = test: Tnf-α-driven systemic inflammatory response syndrome (SIRS) model, hypothermia; type: in vivo; conditions: 15 min after Tnf-α (0.3 mg/kg)/zVAD i.v., 5 h, Tnf-α/zVAD alone -9.3 ± 0.3, vehicle -1.9 ± 0.5
Protocol: TNF-α driven systemic inflammatory response syndrome (SIRS) model was performed as described before (Immunity 35, 908-918 (2011)). Briefly, male C57BL/6 mice (n=6 per group) were injected into the tail vain with a volume of 125 µl per 25 g mouse of either vehicle (15 % PEG 200; 8.4 % DMSO; 0.6 % NaCl) or a mixture of murine Tnf-α (0.3 mg/kg) and zVAD (6.7 mg/kg) prepared in vehicle. No Tnf-α/zVAD was administered to the vehicle group. 15 min after induction of hypothermia by application of Tnf-α/zVAD mix, animals were orally dosed with RIPK1 inhibitor or GSK`963. Body temperature was monitored every hour using radio-frequency identification (RFID) technology with IPTT-300 transponders that were injected subcutaneously 2-3 days before initiation of the experiment.
Next, the effects of RIPK1 inhibition were assessed in vivo using a murine Tnf-α-driven systemic inflammatory response syndrome model (Immunity 35, 908-918 (2011)). C57BL/6 mice (n=6 per group) were injected of either vehicle (15 % PEG 200; 8.4 % DMSO; 0.6 % NaCL 0.9 %) or a mixture of murine Tnf-α (0.3 mg/kg) and zVAD (16.7 mg/kg) into the tail vein. 15 minutes after induction of hypothermia, animals were orally dosed with the RIPK1 inhibitors SAR443122 or GSK`963, a previously described RIPK1 inhibitor ( Cell Death Discov 1, 15009 (2015)). Body temperature was monitored up to 5 hours using radio-frequency identification technology with IPTT-300 transponders that were injected subcutaneously 2-3 days before initiation of the experiment (Fig. 4A). Animals receiving the Tnf-α/zVAD mixture rapidly responded with a significant decrease of body temperature within 5 hours from 37.3 ± 0.2 °C to 27.9 ± 0.2 °C and a delta temperature of -9.3 ± 0.3 °C (p=0.0002) compared to vehicle (-1.9 ± 0.5 °C). Oral administration of RIPK1 inhibitor led to a dose dependent increase of delta body temperature (1 mg/kg: -8.8 ± 0.5 °C; 5 mg/kg: -7.6 ± 1.2 °C; 15 mg/kg: -3.4 ± 1.3 °C, p=0.0007 to Tnf-α/zVAD) (Fig. 4B).

[1] = system: lesional skin of LP patients; test: Human lesional skin biopsy cultures ex vivo, gene expression by qPCR; type: cell-based; conditions: 1 µM inhibitor, 4 h, LP skin biopsies (n=5), compared to autologous non-treated controls
Protocol: 6 mm punch biopsies of lesional skin of LP patients (n=5) were obtained under local anaesthesia. Biopsies were divided into two parts and treated with the RIPK1 inhibitor (1 µM, SANOFI) or without as untreated control sample for 4 h in T cell media (RPMI 1640 medium with 1 % human serum, 0.1 mM non-essential aminoacids, 2 mM L-Glutamine, 1 mM sodium pyruvate and 100 U/mL penicillin/streptomycin). After stimulation, biopsies were stored in RNALater® solution at -80 °C until RNA preparation. RNA was isolated using QIAzol Lysis Reagent (Qiagen) and miRNeasy Mini Kit (Qiagen) according to manufacturer's protocol. mRNA was transcribed into cDNA with Applied Biosytems High Capacity cDNA Reverse Transcription Kit (Thermo Fisher Scientific). Gene expression was measured on an Applied Biosystems ViiA7 Real-Time PCR system (Thermo Fisher Scientific) using Fast Start Universal SYBRGreen Master Rox (Roche). Primers were ordered from Metabion (http://www.metabion.com) and are listed in supplementary Table S5. Data are shown as relative gene expression to untreated sample using 2^-(ΔΔcT) method. Table S5. Primer sequences. Fw = forward. rv = reverse.

[2] = system: primary human keratinocytes; test: Multiplex ELISA of cytokines released by keratinocytes after cell death induction; type: cell-based; conditions: 24 h
Protocol: Primary human keratinocytes were obtained from healthy donors by suction blister as reported before (J Allergy Clin Immunol 141, 1320-1333 e1311 (2018)) and donor characteristics are listed in Table S3. Epidermal keratinocytes were cultured in keratinocyte medium (DermaLife Basal Medium supplemented with DermaLife K LifeFactor Kit (Lifeline Cell Technology, LL-0007)) at 37 °C, 5 % CO2 and second- to third-passages were used. At 70-80 % of confluence, keratinocytes were pre-incubated for 1 h with RIPK1 inhibitor (100 nM or as indicated, SANOFI) followed by stimulation with rhIFN-γ (100 ng/ml or as indicated, R&D, #285-IF-100/CF) and rhTNF-α (100 ng/ml or as indicated, R&D, #210_TA/CF) in the presence of zVAD (20 µM, Cell Signaling, #60332), SMAC (1 µM, LC Laboratories, #B-9135) and the RIPK1 inhibitor for 24 h in keratinocyte medium without hydrocortisone.
Cell free supernatants derived from keratinocyte stimulation experiments or lesional TCS from LP/LE patients were analysed for 27 cytokines, chemokines and growth factors using the Bio-Plex Pro Human Cytokine 27-plex Assay (Bio-Rad Laboratories, Hercules, Calif) according to the manufacturer's recommendation.

CN1C(=O)[C@@H](NC(=O)c2nnc(Cc3ccccc3)[nH]2)COc2cccnc21 [SAR443122, 5-Benzyl-N-[(3S)-5-methyl-4-oxo-2,3-dihydropyrido[3,2-b][1,4]oxazepin-3-yl]-4H-1,2,4-triazole-3-carboxamide]
delta body temperature (C57BL/6 mice; 1 mg/kg oral): -8.8 ± 0.5 °C | delta body temperature (C57BL/6 mice; 5 mg/kg oral): -7.6 ± 1.2 °C | delta body temperature (C57BL/6 mice; 15 mg/kg oral, p=0.0007 to Tnf-α/zVAD): -3.4 ± 1.3 °C | downregulation of CCL3 [1]: 62% | downregulation of CXCL9 [1]: 57% | downregulation of CXCL10 [1]: 40% | downregulation of CXCL11 [1]: 43% | downregulation of IFNg [1]: 60% | downregulation of IL1RA [1]: 65% | downregulation of TNF [1]: 60% | release of IL-1β ([2]; IFN-γ + TNF-α + zVAD + SMAC, dose dependent, p=0.0050 for 100 nM, n=4): significantly diminished the release of IL-1β to basal levels | IL-1α, IL-1RA, CXCL5, IL-8 (CXCL8), GM-CSF and CCL20 ([2]; secreted cytokines, 100 ng/ml IFN-γ + TNF-α + zVAD + SMAC, n=3): significant reduction
